Experimental data from US4783462A, “3(2H)pyridazinone, and anti-allergic agent containing it” (Nissan Chemical Industries Ltd., priority 1985, dated 1988).

How the values were obtained:
ddY strain male mice = test: Acute toxicity test, Test method-(2), intraperitoneal; format: in vivo; settings: 7 days
Protocol: The lethal ratio was determined in ddY strain male mice (4 weeks old) at 7 days after the intraperitoneal injection of test compounds.

LTC4 = test: Antagonism in isolated guinea-pig trachea, Test method (i) (Table 3, given as LTC4 antagonism); format: cell-based; settings: Cavia porcellus, 5 min, test compound 10^-5 g/ml, given as LTC4 antagonisms
Protocol: (i) LTC4 and LTD4 antagonisms in guinea-pig trachea
Antagonisms for LTC4 and LTD4 were determined in isolated guinea-pig trachea prepared as spiral strip. Tracheal preparations were suspended under 1 g tension in 10 ml organ baths and they were incubated for 1 hr prior to use. Contractile responses to LTC4 (2×10^-8 g/ml) and LTD4 (2×10^-8 g/ml) were obtained after the maximal response to histamine (10^-4 M). Test compounds dissolved in 100% dimethyl sulfoxide were added to the organ baths (final concentration of 10^-5 g/ml or 10^-6 g/ml) 5 min prior to LTC4 and LTD4 addition, and then contractile responses to LTC4 and LTD4 were compared with those of control which was obtained from a paired trachea in the absence of test compounds. LTC4 - and LTD4 -induced contractions were expressed as a percentage of the maximal response to histamine. The antagonism was determined as follows:
(§1) Antagonism (%)=(1.0-% contraction in test/% contraction in […]

LTD4 = LTD4 antagonism in isolated guinea-pig trachea with indomethacin, Test method (ii) (Table 4); format: cell-based; settings: Cavia porcellus, 0.5 h, LTD4 2×10^-8 g/ml, test compound 10^-6 g/ml, 30 min prior, 5 μmol indomethacin
Protocol: (ii) LTD4 antagonism in guinea-pig trachea
Antagonism for LTD4 was determined in isolated guinea-pig trachea prepared as spiral strip. Tracheal preparations were suspended under 1 g tension in 10 ml organ baths containing 5 μmol of indomethacin and they were incuated for 1 hr prior to use. Contractile responses to LTD4 (2×10^-8 g/ml) were obtained after the maximal response to histamine (10^-4 M). Test compounds dissolved in 100% dimethyl sulfoxide were added to the organ baths (final concentration of 10^-6 g/ml) 30 min prior to LTD4 addition, and then contractile responses to LTD4 were compared with those of control which was obtained from a paired trachea in the absence of test compounds. LTD4 -induced contractions were expressed as a percentage of the maximal response to histamine. The antagonism was determined as follows:
as §1

| SMILES | inhibition at 10 µg/mL (LTC4) | also measured |
| --- | --- | --- |
| CCCc1cc(C#N)ccc1OCCCNc1cnn(C(C)(C)C)c(=O)c1Cl [Compound No. 1, 4-Chloro-5-[3-(2-n-propyl-4-cyanophenoxy)propylamino]-2-t-butyl-3(2H)pyridazinone] | 49% | Lethal ratio (Death number/Experimental number) (ddY strain male mice; 200 mg/kg intraperitoneal): 0/2; Lethal ratio (Death number/Experimental number) (ddY strain male mice; 400 mg/kg intraperitoneal): 0/1 |
| CCOC(=O)c1ccc(OCCCNc2cnn(CC)c(=O)c2Cl)c(Cl)c1 [Compound No. 10] | 46% | Lethal ratio (Death number/Experimental number) (ddY strain male mice; 200 mg/kg intraperitoneal): 0/2; Lethal ratio (Death number/Experimental number) (ddY strain male mice; 400 mg/kg intraperitoneal): 0/1 |
| COc1cccc(SCCCNc2cnn(C(C)(C)C)c(=O)c2Cl)c1 [Compound No. 14] | 40% | Lethal ratio (Death number/Experimental number) (ddY strain male mice; 200 mg/kg intraperitoneal): 0/2; Lethal ratio (Death number/Experimental number) (ddY strain male mice; 400 mg/kg intraperitoneal): 0/1 |
| CCCc1cc(C(N)=O)ccc1OCCCNc1cnn(C(C)C)c(=O)c1Br [Compound No. 122] | – | inhibition at 1 µg/mL (LTD4): 94% |
| CCCCc1cc(C(=O)OC)ccc1OCCCNc1cnn(C(C)C)c(=O)c1Br [Compound No. 126] | – | inhibition at 1 µg/mL (LTD4): 90% |
| CCCc1cc(C#N)ccc1OCC(O)CNc1cnn(C(C)C)c(=O)c1Cl (centres unmarked) [Compound No. 145, 4-chloro-5-[3-(2-n-propyl-4-cyanophenoxy)-2-hydroxypropylamino]-2-i-propyl-3(2H)pyridazinone] | 85% | Lethal ratio (Death number/Experimental number) (ddY strain male mice; 200 mg/kg intraperitoneal): 0/2; Lethal ratio (Death number/Experimental number) (ddY strain male mice; 400 mg/kg intraperitoneal): 0/1 |
| CCCCc1cc(C(N)=O)ccc1OCCCNc1cnn(CC)c(=O)c1Br [Compound No. 180, 4-bromo-5-[3-(2-n-butyl-4-carbamoylphenoxy)propylamino]-2-ethyl-3(2H) pyridazinone] | – | inhibition at 1 µg/mL (LTD4): 88% |
| CCCCc1cc(C#N)ccc1OCCCNc1cnn(CC)c(=O)c1Br [Compound No. 181, 4-Bromo-5-[3-(2-n-butyl-4-cyanophenoxy)propylamino]-2-ethyl-3(2H)pyridazinone] | – | inhibition at 1 µg/mL (LTD4): 70% |
| CCn1ncc(NCCCOc2ccc(C(=O)OC)cc2Cl)c(Cl)c1=O [compound 13] | 53% | Lethal ratio (Death number/Experimental number) (ddY strain male mice; 200 mg/kg intraperitoneal): 0/2; Lethal ratio (Death number/Experimental number) (ddY strain male mice; 400 mg/kg intraperitoneal): 0/1 |
| CCCc1c(OCCCOc2cnn(CC)c(=O)c2Cl)ccc2c(=O)cc(C(=O)O)oc12 [compound 29] | 18% | Lethal ratio (Death number/Experimental number) (ddY strain male mice; 200 mg/kg intraperitoneal): 0/2; Lethal ratio (Death number/Experimental number) (ddY strain male mice; 400 mg/kg intraperitoneal): 0/1 |
| COc1cccc(OCCCOc2cnn(C(C)C)c(=O)c2Cl)c1 [compound 35] | 72% | Lethal ratio (Death number/Experimental number) (ddY strain male mice; 200 mg/kg intraperitoneal): 0/2; Lethal ratio (Death number/Experimental number) (ddY strain male mice; 400 mg/kg intraperitoneal): 0/1 |
| COc1cccc(OCCOc2cnn(C(C)C)c(=O)c2Cl)c1 [compound 45] | 27% | Lethal ratio (Death number/Experimental number) (ddY strain male mice; 200 mg/kg intraperitoneal): 0/2; Lethal ratio (Death number/Experimental number) (ddY strain male mice; 400 mg/kg intraperitoneal): 0/1 |
| CCCc1cc(C(=O)O)ccc1OCCCOc1cnn(C(C)C)c(=O)c1Cl [compound 86] | 59% | – |
| CCCc1cc(C#N)ccc1OCCCOc1cnn(C(C)C)c(=O)c1Cl [compound 87] | 60% | – |
| COC(=O)c1ccc(OCCCNc2cnn(C(C)C)c(=O)c2Cl)c(C(C)C)c1 [compound 88] | 97% | – |
| CC(C)c1cc(C(=O)O)ccc1OCCCNc1cnn(C(C)C)c(=O)c1Cl [compound 89] | 52% | – |
| CCOc1cc(C(=O)OC)ccc1OCCCNc1cnn(C(C)C)c(=O)c1Cl [compound 90] | 83% | – |
| CCOc1cc(C(=O)O)ccc1OCCCNc1cnn(C(C)C)c(=O)c1Cl [compound 91] | 14% | – |
| CCc1cc(C=CC(=O)O)ccc1OCCCNc1cnn(C(C)C)c(=O)c1Cl [compound 95] | 59% | – |
| CCc1cc(C(=O)OC)ccc1OCCCNc1cnn(CC)c(=O)c1Cl [compound 96] | 77% | – |
| CCc1cc(C(=O)O)ccc1OCCCNc1cnn(C(C)C)c(=O)c1Cl [compound 97] | 62% | – |

| SMILES | inhibition at 10 µg/mL (LTC4) | also measured |
| --- | --- | --- |
| CCn1ncc(NCCCOc2ccc(C)cc2OC)c(Cl)c1=O [compound 99] | 51% | – |
| COc1cc(C)ccc1OCCCNc1cnn(C(C)C)c(=O)c1Cl [compound 100] | 66% | – |
| CCn1ncc(NCCCOc2ccc(C(=O)O)cc2C(C)C)c(Cl)c1=O [compound 104] | 57% | – |
| CCc1cc(OC)ccc1OCCCNc1cnn(CC)c(=O)c1Cl [compound 106] | 93% | – |
| CCc1cc(OC)ccc1OCCCNc1cnn(C(C)C)c(=O)c1Cl [compound 107] | 85% | – |
| CCCCc1cc(C(=O)OC)ccc1OCCCNc1cnn(C(C)C)c(=O)c1Cl [compound 110] | 77% | – |
| CCCc1cc(C(=O)O)ccc1OCCCNc1cnn(CC)c(=O)c1Br [compound 119] | 100% | – |
| CCCc1cc(C(=O)OC)ccc1OCCCNc1cnn(C(C)C)c(=O)c1Br [compound 124] | – | inhibition at 1 µg/mL (LTD4): 92% |
| CCCc1cc(C(=O)O)ccc1OCCCNc1cnn(C(C)C)c(=O)c1Br [compound 125] | – | inhibition at 1 µg/mL (LTD4): 84% |
| CCCc1cc(OC)ccc1OCCCNc1cnn(CC)c(=O)c1Br [compound 135] | – | inhibition at 1 µg/mL (LTD4): 57% |
| CCc1cc(OC)ccc1OCCCNc1cnn(CC)c(=O)c1Br [compound 137] | – | inhibition at 1 µg/mL (LTD4): 53% |
| COc1cccc(OCC(O)COc2cnn(C(C)C)c(=O)c2Cl)c1 (centres unmarked) [compound 140] | 41% | – |
| CCOc1ccccc1OCC(O)COc1cnn(C(C)C)c(=O)c1Cl (centres unmarked) [compound 141] | 54% | – |
| CC(C)c1ccccc1OCC(O)COc1cnn(C(C)C)c(=O)c1Cl (centres unmarked) [compound 142] | 69% | Lethal ratio (Death number/Experimental number) (ddY strain male mice; 200 mg/kg intraperitoneal): 0/2; Lethal ratio (Death number/Experimental number) (ddY strain male mice; 400 mg/kg intraperitoneal): 0/1 |
| CCCc1ccccc1OCC(O)CNc1cnn(C(C)C)c(=O)c1Cl (centres unmarked) [compound 144] | 84% | – |
| CCCc1cc(C(=O)O)ccc1OCC(O)CNc1cnn(C(C)C)c(=O)c1Cl (centres unmarked) [compound 146] | 14% | – |
| CCCc1cc(C(=O)OC)ccc1OCC(O)CNc1cnn(C(C)C)c(=O)c1Cl (centres unmarked) [compound 147] | 66% | – |
| CCCc1cc(C(N)=O)ccc1OCC(O)CNc1cnn(C(C)C)c(=O)c1Cl (centres unmarked) [compound 148] | 17% | – |
| CCCc1cc(C#N)ccc1OCC(=O)CNc1cnn(C(C)C)c(=O)c1Cl [compound 149] | 81% | – |
| CCn1ncc(NCC(O)COS(=O)(=O)c2ccc(C)cc2)c(Cl)c1=O (centres unmarked) [compound 150] | 16% | – |
| CC(C)n1ncc(NCC(O)COc2ccccc2Cl)c(Cl)c1=O (centres unmarked) [compound 151] | 47% | – |

| SMILES | inhibition at 10 µg/mL (LTC4) | also measured |
| --- | --- | --- |
| CCCc1cc(OC)ccc1OCC(O)CNc1cnn(CC)c(=O)c1Cl (centres unmarked) [compound 152] | 60% | – |
| CCCc1cc(C(=O)OC)ccc1SCC(=O)CNc1cnn(C(C)C)c(=O)c1Cl [compound 156] | 56% | – |
| CCn1ncc(NCC(O)COc2ccccc2Cl)c(Cl)c1=O (centres unmarked) [compound 159] | 44% | – |
| CCCc1cc(OC)ccc1OCC(O)CNc1cnn(C(C)C)c(=O)c1Cl (centres unmarked) [compound 160] | 70% | – |
| CCCc1cc(C(=O)O)ccc1OCC(CN(C)c1cnn(C(C)C)c(=O)c1Cl)OC (centres unmarked) [compound 165] | 33% | – |
| COC(COc1ccc(C(=O)C(C)CC(=O)O)cc1)CN(C)c1cnn(C(C)C)c(=O)c1Cl (centres unmarked) [compound 168] | 21% | – |
| CC(C)c1ccccc1OCC(O)COc1cnn(C(C)C)c(=O)c1 (centres unmarked) [compound 169] | 50% | – |
| COc1ccc(NCC(O)COc2cnn(C(C)C)c(=O)c2Cl)cc1OC (centres unmarked) [compound 170] | 17% | – |
| CCCc1cc(C#N)ccc1OCC(=O)COc1cnn(C(C)C)c(=O)c1Cl [compound 173] | 35% | – |
| CCCc1cc(C(=O)OC)ccc1OCC(O)COc1cnn(C(C)C)c(=O)c1Cl (centres unmarked) [compound 174] | 78% | – |
| CCCc1cc(C(=O)OC)ccc1OCC(COc1cnn(C(C)C)c(=O)c1Cl)OC (centres unmarked) [compound 175] | 55% | – |
| CCCCc1cc(C(=O)OC)ccc1OCCCNc1cnn(CC)c(=O)c1Br [compound 178] | – | inhibition at 1 µg/mL (LTD4): 69% |
| CCCCc1cc(C(=O)O)ccc1OCCCNc1cnn(CC)c(=O)c1Br [compound 179] | – | inhibition at 1 µg/mL (LTD4): 63% |
| CCCc1cc(O)ccc1OCCCNc1cnn(CC)c(=O)c1Br [compound 197] | – | inhibition at 1 µg/mL (LTD4): 82% |
| CCCc1cc(O)ccc1OCCCNc1cnn(C(C)C)c(=O)c1Br [compound 198] | – | inhibition at 1 µg/mL (LTD4): 86% |
| CCc1cc(C=O)ccc1OCCCNc1cnn(CC)c(=O)c1Br [compound 199] | – | inhibition at 1 µg/mL (LTD4): 65% |
| CCc1cc(C=O)ccc1OCCCNc1cnn(C(C)C)c(=O)c1Br [compound 200] | – | inhibition at 1 µg/mL (LTD4): 81% |
| CCCCCc1cc(C(=O)O)ccc1OCCCNc1cnn(CC)c(=O)c1Cl [compound 202] | – | inhibition at 1 µg/mL (LTD4): 89% |
| CCCCCc1cc(C(N)=O)ccc1OCCCNc1cnn(CC)c(=O)c1Cl [compound 203] | – | inhibition at 1 µg/mL (LTD4): 94% |
| CCCCCc1cc(C(=O)OC)ccc1OCCCNc1cnn(CC)c(=O)c1Br [compound 204] | – | inhibition at 1 µg/mL (LTD4): 95% |
